Source: patent publication US12410160B2 (Gilead Sciences, Inc., priority 2021, dated 2025)

What was measured:
human KHK-C = human KHK-C (Homo sapiens (Human), UniProt P50053); assay: KHK Biochemical Assay (IC50), ADP-Glo, KHK-C; conditions: average of at least two separate assays
Procedure, shortened: (§1)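 His-tagged enzyme expressed in BL21 (DE3), Ni-NTA purified. Compounds, serially diluted 1:3 in DMSO, pre-incubated 30 min with enzyme in 50 mM Hepes pH 7.4, 140 mM KCl, 5 mM MgCl2, 0.01% Triton-X, then ATP and fructose added; 4 h at room temperature. ADP formation read by ADP-Glo luminescence.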

human KHK-A = human KHK-A (Homo sapiens (Human), UniProt P50053); assay: KHK Biochemical Assay (IC50), ADP-Glo, KHK-A; conditions: average of at least two separate assays
Chain of human KHK-A (P50053 other isoform, or with tags, fused parts or gaps): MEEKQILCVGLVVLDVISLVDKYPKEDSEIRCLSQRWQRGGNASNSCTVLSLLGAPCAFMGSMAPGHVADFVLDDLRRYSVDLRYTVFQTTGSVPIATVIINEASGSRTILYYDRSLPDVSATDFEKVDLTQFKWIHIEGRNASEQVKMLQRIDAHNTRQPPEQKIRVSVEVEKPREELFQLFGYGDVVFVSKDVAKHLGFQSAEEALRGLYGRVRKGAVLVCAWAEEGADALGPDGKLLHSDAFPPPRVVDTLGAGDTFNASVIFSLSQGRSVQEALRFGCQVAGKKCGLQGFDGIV
Procedure, shortened: as §1

[1] = molecular target: KHK-C expressed in NRK-52E cells (Homo sapiens (Human), UniProt P50053); assay: KHK-C Cell-based Assay (EC50), NRK CTG, fructose-mediated ATP-depletion
Chain of KHK-C expressed in NRK-52E cells (P50053 whole entry): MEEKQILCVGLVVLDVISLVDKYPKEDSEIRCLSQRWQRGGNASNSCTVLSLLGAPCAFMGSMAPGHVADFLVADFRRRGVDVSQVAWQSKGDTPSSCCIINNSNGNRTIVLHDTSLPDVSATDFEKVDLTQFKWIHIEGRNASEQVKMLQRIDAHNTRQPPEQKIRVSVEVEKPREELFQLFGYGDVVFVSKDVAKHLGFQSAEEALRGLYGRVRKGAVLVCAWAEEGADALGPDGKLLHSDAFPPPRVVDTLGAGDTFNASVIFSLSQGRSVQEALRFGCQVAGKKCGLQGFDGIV

Chain of human KHK-C (P50053 whole entry): as above

Compound | IC50 (human KHK-C; ADP-Glo) | IC50 (human KHK-A; ADP-Glo) | EC50 [1] | IC50 (human KHK-C) | IC50 (human KHK-A)
C[C@H]1CCN1c1nc2c(c(-c3cccc(CN4CCCC4)c3)n1)CCC2 [Example 348, 2-[(2S)-2-methylazetidin-1-yl]-4-[3-(pyrrolidin-1-ylmethyl)phenyl]-6,7-dihydro-5H-cyclopenta[d]pyrimidine] | 22.7 nM | 24.2 nM | 35.1 nM | – | –
C[C@H]1CCN1c1nc2c(c(-c3cccc(CN4CCOCC4)c3)n1)CCC2 [Example 349, 4-[[3-[2-[(2S)-2-methylazetidin-1-yl]-6,7-dihydro-5H-cyclopenta[d]pyrimidin-4-yl]phenyl]methyl]morpholine] | 90.6 nM | 79.3 nM | 305 nM | – | –
C[C@H]1CCN1c1nc2c(c(-c3cccc(CN4CC(O)C4)c3)n1)CCC2 [Example 350, 1-[[3-[2-[(2S)-2-methylazetidin-1-yl]-6,7-dihydro-5H-cyclopenta[d]pyrimidin-4-yl]phenyl]methyl]azetidin-3-ol] | 19.3 nM | 16.8 nM | 14 nM | – | –
CC(=O)Nc1ccc(-c2nc(N3CC[C@@H]3C)nc3c2CCC3)cc1 [Example 355, N-[4-[2-[(2S)-2-methylazetidin-1-yl]-6,7-dihydro-5H-cyclopenta[d]pyrimidin-4-yl]phenyl]acetamide] | 72.7 nM | 33.3 nM | 92.4 nM | – | –
C[C@H]1CCN1c1nc2c(c(-c3ccc(CN4CC(O)C4)cc3)n1)CCC2 [Example 365, 1-[[4-[2-[(2S)-2-methylazetidin-1-yl]-6,7-dihydro-5H-cyclopenta[d]pyrimidin-4-yl]phenyl]methyl]azetidin-3-ol] | 19 nM | 27.2 nM | 29.3 nM | – | –
C[C@H]1CCN1c1nc2c(c(-c3ccc(CN4CCC4)cc3)n1)CCC2 [Example 366, 4-[4-(azetidin-1-ylmethyl)phenyl]-2-[(2S)-2-methylazetidin-1-yl]-6,7-dihydro-5H-cyclopenta[d]pyrimidine] | 86.5 nM | 54 nM | 75.4 nM | – | –
C[C@H]1CCN1c1nc2c(c(-c3ccc(CO)c(F)c3)n1)CCC2 [Example 370, [2-fluoro-4-[2-[(2S)-2-methylazetidin-1-yl]-6,7-dihydro-5H-cyclopenta[d]pyrimidin-4-yl]phenyl]methanol] | 81.7 nM | 76.3 nM | 117 nM | – | –
C[C@H]1CCN1c1nc2c(c(-c3ccc(CO)cc3)n1)CCC2 [Example 374, [4-[2-[(2S)-2-methylazetidin-1-yl]-6,7-dihydro-5H-cyclopenta[d]pyrimidin-4-yl]phenyl]methanol] | 40.4 nM | 47.8 nM | 73.5 nM | – | –
C[C@H]1CCN1c1nc2c(c(-c3ccc(CO)s3)n1)CCC2 [Example 375, [5-[2-[(2S)-2-methylazetidin-1-yl]-6,7-dihydro-5H-cyclopenta[d]pyrimidin-4-yl]-2-thienyl]methanol] | 18.2 nM | 30.3 nM | 84 nM | – | –
C[C@H]1CCN1c1nc2c(c(-c3ccc(C(C)(C)O)s3)n1)CCC2 [Example 376, 2-[5-[2-[(2S)-2-methylazetidin-1-yl]-6,7-dihydro-5H-cyclopenta[d]pyrimidin-4-yl]-2-thienyl]propan-2-ol] | 27.9 nM | 52.3 nM | 37.3 nM | – | –
C[C@H]1[C@H](O)CN1c1nc2c(c(-c3ccc(CNS(C)(=O)=O)s3)n1)CCC2 [Example 377, N-[[5-[2-[(2S,3R)-3-hydroxy-2-methyl-azetidin-1-yl]-6,7-dihydro-5H-cyclopenta[d]pyrimidin-4-yl]-2-thienyl]methyl]methanesulfonamide] | 21.1 nM | 26.9 nM | 92.9 nM | – | –
C[C@H]1CCN1c1nc2c(c(-c3cc4c(=O)[nH]ccc4s3)n1)CCC2 [Example 384, 2-[2-[(2S)-2-methylazetidin-1-yl]-6,7-dihydro-5H-cyclopenta[d]pyrimidin-4-yl]-5H-thieno[3,2-c]pyridin-4-one] | 14.7 nM | 2.9 nM | 19.7 nM | – | –
Cc1nc2cc(-c3nc(N4CC[C@@H]4C)nc4c3CCC4)ccc2c(=O)[nH]1 [Example 387, 2-methyl-7-[2-[(2S)-2-methylazetidin-1-yl]-6,7-dihydro-5H-cyclopenta[d]pyrimidin-4-yl]-3H-quinazolin-4-one] | 9.9 nM | 5.6 nM | 19.6 nM | – | –
C[C@H]1[C@H](O)CN1c1nc2c(c(-c3ccc4cnc(O)cc4c3)n1)CCC2 [Example 388, 6-[2-[(2S,3R)-3-hydroxy-2-methyl-azetidin-1-yl]-6,7-dihydro-5H-cyclopenta[d]pyrimidin-4-yl]isoquinolin-3-ol] | 81.3 nM | 87.7 nM | 403 nM | – | –
C[C@H]1CCN1c1nc2c(c(-c3nc4cc(F)ccc4n3C)n1)CCC2 [Example 390, 5-fluoro-1-methyl-2-[2-[(2S)-2-methylazetidin-1-yl]-6,7-dihydro-5H-cyclopenta[d]pyrimidin-4-yl]benzimidazole] | 2480 nM | 4220 nM | 3330 nM | – | –
C[C@H]1CCN1c1nc2c(c(-c3nc4ccccc4n3C)n1)CCC2 [Example 391, 1-methyl-2-[2-[(2S)-2-methylazetidin-1-yl]-6,7-dihydro-5H-cyclopenta[d]pyrimidin-4-yl]benzimidazole] | 915 nM | 2190 nM | 1810 nM | – | –
C[C@H]1CCN1c1nc(-c2ccc(C(N)=O)cc2)c2[nH]ncc2n1 [Example 396, (S)-4-(5-(2-methylazetidin-1-yl)-1H-pyrazolo[4,3-d]pyrimidin-7-yl)benzamide] | – | – | 2510 nM | 80 nM | 130 nM
C[C@H]1CCN1c1nc2c(c(-c3ccc4c(c3)[C@]3(C[C@H]3c3nc[nH]n3)C(=O)N4)n1)CCC2 [Example 414, (1R,2R)-5′-(2-((S)-2-methylazetidin-1-yl)-6,7-dihydro-5H-cyclopenta[d]pyrimidin-4-yl)-2-(1H-1,2,4-triazol-3-yl)spiro[cyclopropane-1,3′-indolin]-2′-one] | – | – | > 5000 nM | 138 nM | 397 nM
C[C@H]1CCN1c1nc2c(c(-c3cc(C(N)=O)c4ccccc4c3)n1)CCC2 [Example 423, (S)-3-(2-(2-methylazetidin-1-yl)-6,7-dihydro-5H-cyclopenta[d]pyrimidin-4-yl)-1-naphthamide] | – | – | 239 nM | 81.4 nM | 66.1 nM
C[C@H]1CCN1c1nc2c(c(-c3ccc4c(c3)C(=O)NC(=O)C4)n1)CCC2 [Example 424, (S)-7-(2-(2-methylazetidin-1-yl)-6,7-dihydro-5H-cyclopenta[d]pyrimidin-4-yl)isoquinoline-1,3(2H,4H)-dione] | – | – | 3510 nM | 136 nM | 169 nM
C[C@H]1CCN1c1nc2c(c(-c3ccc4[nH]c(=O)[nH]c(=O)c4c3)n1)CCC2 [Example 425, 6-[2-[(2S)-2-methylazetidin-1-yl]-6,7-dihydro-5H-cyclopenta[d]pyrimidin-4-yl]-1H-quinazoline-2,4-dione] | – | – | 122 nM | 31.4 nM | 21.7 nM
C[C@H]1CCN1c1nc2c(c(-c3ccc4c(=O)[nH]c(=O)[nH]c4c3)n1)CCC2 [Example 426, 7-[2-[(2S)-2-methylazetidin-1-yl]-6,7-dihydro-5H-cyclopenta[d]pyrimidin-4-yl]-1H-quinazoline-2,4-dione] | – | – | 92.8 nM | 40.1 nM | 17.9 nM
